{"source": "paper PMC5344125", "about": "(Nano letters, 2016)", "test_system": "LS174T secreted proteases", "assay": "Secreted protease activity assay with conditioned supernatant", "assay_type": "biochemical, human", "details": "fluorescently quenched substrates, MMP inhibitor added"}
{"smiles": "CNC(=O)[C@@H](NC(=O)[C@H](CC(C)C)[C@H](O)C(=O)NO)C(C)(C)C", "note": "[Marimastat]", "values": [{"measurement": "in vitro proteolysis of substrates in the presence of Marimastat", "result": "abrogated"}]}
